Experimental data published in patent US12492181B2, “Gem-disubstituted piperidine melanocortin subtype-2 receptor (MC2R) antagonists and uses thereof” (Crinetics Pharmaceuticals, Inc., priority 2019, dated 2025).
pKi: −log10 of the molar value.

Molecular target: T1, hMC2 receptor (crude hMC2R membranes from CRE-bla-CHO-K1 cells stably expressing hMC2 receptor and hMRAP accessory protein) (Homo sapiens, UniProt Q01718)
T1 construct: crude membrane fractions
Experiment: hMC2 membrane binding assay ([125I]ACTH (1-39) Tyr23, SPA)
Settings: displacement of 0.2 nM [125I]ACTH (1-39) Tyr23 from hMC2R membranes, 1.5 hours at room temperature; read-out: MC2R binding potency
How it was run: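 Crude membranes from CRE-bla-CHO-K1 cells stably co-expressing hMC2R and hMRAP, premixed with WGA PVT SPA beads in pH 7.4 HEPES buffer (5 mM MgCl2, 1 mM CaCl2, 0.20% BSA, protease inhibitors). Compounds compete with [125I]ACTH(1-39) Tyr23, read by scintillation. Ki from non-linear regression.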

T1 sequence (Q01718 whole entry): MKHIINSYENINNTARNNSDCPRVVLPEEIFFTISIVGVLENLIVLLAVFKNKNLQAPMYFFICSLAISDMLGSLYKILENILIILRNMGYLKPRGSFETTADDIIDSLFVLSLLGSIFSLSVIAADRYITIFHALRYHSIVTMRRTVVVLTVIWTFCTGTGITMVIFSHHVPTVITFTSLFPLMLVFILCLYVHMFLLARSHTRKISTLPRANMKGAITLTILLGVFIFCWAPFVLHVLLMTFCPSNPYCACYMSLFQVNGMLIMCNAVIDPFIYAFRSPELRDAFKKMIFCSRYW
T1 sequence (Q8TCY5 whole entry partner): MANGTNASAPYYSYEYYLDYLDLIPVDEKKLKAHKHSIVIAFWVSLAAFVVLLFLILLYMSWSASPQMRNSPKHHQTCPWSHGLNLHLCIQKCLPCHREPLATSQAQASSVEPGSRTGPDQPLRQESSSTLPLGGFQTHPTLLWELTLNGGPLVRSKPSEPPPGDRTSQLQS

Row | pKi | Structure (SMILES)
1 | > 8.00 | Cn1cccc1-c1ccc(C2(C(=O)N[C@H]3CCNC3)CCN(c3ccc(C(F)(F)F)cc3C#N)CC2)cn1 [Compound 1-152, 1-[2-cyano-4-(trifluoromethyl)phenyl]-4-[6-(1-methyl-1H-pyrrol-2-yl)pyridin-3-yl]-N-[(3S)-pyrrolidin-3-yl]piperidine-4-carboxamide]
2 | > 8.00 | C[C@H](CN(C)C)NC(=O)C1(c2ccc(-c3cccn3C)nc2)CCN(c2ccc(C(F)(F)F)cc2C#N)CC1 [Compound 1-260, 1-[2-cyano-4-(trifluoromethyl)phenyl]-N-[(2R)-1-(dimethylamino)propan-2-yl]-4-[6-(1-methyl-1H-pyrrol-2-yl)pyridin-3-yl]piperidine-4-carboxamide]
3 | 7.00 to 8.00 | Cn1cccc1-c1ccc(C2(C(=O)NC[C@@H]3CCN3)CCN(c3ccc(C(F)(F)F)cc3C#N)CC2)cn1 [Compound 1-235, N-{[(2S)-azetidin-2-yl]methyl}-1-[2-cyano-4-(trifluoromethyl)phenyl]-4-[6-(1-methyl-1H-pyrrol-2-yl)pyridin-3-yl]piperidine-4-carboxamide]
4 | 7.00 to 8.00 | CCOc1ncccc1-c1ccc(C2(C(=O)N[C@@H]3CCN(C)C3)CCN(c3ccc(C(F)(F)F)nc3C(N)=O)CC2)cn1 [Compound 1-25, 3-(4-{2′-ethoxy-[2,3′-bipyridin]-5-yl}-4-{[(3R)-1-methylpyrrolidin-3-yl]carbamoyl}piperidin-1-yl)-6-(trifluoromethyl)pyridine-2-carboxamide]
5 | > 8.00 | CCOc1ncccc1-c1ccc(C2(NC(=O)CN(C)C)CCN(c3ccc(C(F)(F)F)cc3C#N)CC2)cn1 [Compound 2-26, N-{1-[2-cyano-4-(trifluoromethyl)phenyl]-4-{2′-ethoxy-[2,3′-bipyridin]-5-yl}piperidin-4-yl}-2-(dimethylamino)acetamide]
6 | > 8.00 | Cn1cccc1-c1ccc(C2(C(=O)N[C@@H]3C[C@@H]3N)CCN(c3ccc(C(F)(F)F)cc3C#N)CC2)cn1 (racemic) [Compound 1-258, rac-N-[(1R,2S)-2-aminocyclopropyl]-1-[2-cyano-4-(trifluoromethyl)phenyl]-4-[6-(1-methyl-1H-pyrrol-2-yl)pyridin-3-yl]piperidine-4-carboxamide]
7 | > 8.00 | COc1ccccc1-c1ccc(C2(C(=O)NC[C@@H]3CCN3C)CCN(c3ccc(C(F)(F)F)cc3C#N)CC2)cn1 [Compound 1-217, 1-[2-cyano-4-(trifluoromethyl)phenyl]-4-[6-(2-methoxyphenyl)pyridine-3-yl]-N-{[(2S)-1-methylazetidin-2-yl]methyl}piperidine-4-carboxamide]
8 | > 8.00 | CCOc1ncccc1-c1ncc(C2(C(=O)N[C@H]3CCN(C)C3)CCN(c3ccc(C(F)(F)F)nc3C#N)CC2)cc1F [Compound 1-110, 1-[2-cyano-6-(trifluoromethyl)pyridin-3-yl]-4-{2′-ethoxy-3-fluoro-[2,3′-bipyridin]-5-yl}-N-[(3S)-1-methylpyrrolidin-3-yl]piperidine-4-carboxamide]
9 | > 8.00 | CCOc1ncccc1-c1ncc(C2(C(=O)NCCNC)CCN(c3ccc(C(F)(F)F)cc3F)CC2)cc1F [Compound 1-287, 4-{2′-ethoxy-3-fluoro-[2,3′-bipyridin]-5-yl}-1-[2-fluoro-4-(trifluoromethyl)phenyl]-N-[2-(methylamino)ethyl]piperidine-4-carboxamide]
10 | > 8.00 | Cn1cccc1-c1ccc(C2(C(=O)NC[C@H]3CCCN3)CCN(c3ccc(C(F)(F)F)cc3C#N)CC2)cn1 [Compound 1-231, 1-[2-cyano-4-(trifluoromethyl)phenyl]-4-[6-(1-methyl-1H-pyrrol-2-yl)pyridin-3-yl]-N-{[(2R)-pyrrolidin-2-yl]methyl}piperidine-4-carboxamide]
11 | > 8.00 | COc1ccccc1-c1ccc(C2(NC(=O)N[C@@H]3CCN(C)C3)CCN(c3ccc(C(F)(F)F)cc3C#N)CC2)cn1 [Compound 2-56, 1-{1-[2-cyano-4-(trifluoromethyl)phenyl]-4-[6-(2-methoxyphenyl)pyridin-3-yl]piperidin-4-yl}-3-[(3R)-1-methylpyrrolidin-3-yl]urea]
12 | > 8.00 | CCOc1ncccc1-c1ncc(C2(C(=O)N[C@@H](C)CN(C)C)CCN(c3ccc(C(F)(F)F)cc3F)CC2)cc1F [Compound 1-312, N-[(2S)-1-(dimethylamino)propan-2-yl]-4-{2′-ethoxy-3-fluoro-[2,3′-bipyridin]-5-yl}-1-[2-fluoro-4-(trifluoromethyl)phenyl]piperidine-4-carboxamide]
13 | > 8.00 | CCn1cccc1-c1ccc(C2(C(=O)N[C@H]3CCN(C)C3)CCN(c3ccc(C(F)(F)F)cc3C#N)CC2)cn1 [Compound 1-208, 1-[2-cyano-4-(trifluoromethyl)phenyl]-4-[6-(1-ethyl-1H-pyrrol-2-yl)pyridine-3-yl]-N-[(3S)-1-methylpyrrolidin-3-yl]piperidine-4-carboxamide]
14 | > 8.00 | CN1CC[C@@H](NC(=O)C2(c3ccc(-c4ccccc4C(F)(F)F)nc3)CCN(c3ccc(C(F)(F)F)cc3C#N)CC2)C1 [Compound 1-77, 1-[2-cyano-4-(trifluoromethyl)phenyl]-N-[(3R)-1-methylpyrrolidin-3-yl]-4-{6-[2-(trifluoromethyl)phenyl]pyridin-3-yl}piperidine-4-carboxamide]
15 | 6.00 to 7.00 | CN1CC(F)(F)C[C@H]1CNC(=O)C1(c2ccc(-c3cccn3C)nc2)CCN(c2ccc(C(F)(F)F)cc2C#N)CC1 [Compound 1-279, 1-[2-cyano-4-(trifluoromethyl)phenyl]-N-{[(2S)-4,4-difluoro-1-methylpyrrolidin-2-yl]methyl}-4-[6-(1-methyl-1H-pyrrol-2-yl)pyridin-3-yl]piperidine-4-carboxamide]
16 | 7.00 to 8.00 | COc1ccccc1-c1ccc(C2(C(=O)NC[C@H]3CN(C)CCO3)CCN(c3ccc(C(F)(F)F)cc3C#N)CC2)cn1 [Compound 1-327, 1-[2-cyano-4-(trifluoromethyl)phenyl]-4-[6-(2-methoxyphenyl)pyridin-3-yl]-N-{[(2S)-4-methylmorpholin-2-yl]methyl}piperidine-4-carboxamide]
17 | 7.00 to 8.00 | CCOc1ncccc1-c1ccc(C2(C(=O)N[C@H]3CCN(C)C3)CCN(c3ccc(C(F)(F)F)nc3C(N)=O)CC2)cn1 [Compound 1-27, 3-(4-{2′-ethoxy-[2,3′-bipyridin]-5-yl}-4-{[(3S)-1-methylpyrrolidin-3-yl]carbamoyl}piperidin-1-yl)-6-(trifluoromethyl)pyridine-2-carboxamide]
18 | 7.00 to 8.00 | CCOc1ncccc1-c1ccc(C2(C(=O)NC[C@@H](C)N)CCN(c3ccc(C(F)(F)F)cc3C#N)CC2)cc1 [Compound 1-4, N-[(2R)-2-aminopropyl]-1-[2-cyano-4-(trifluoromethyl)phenyl]-4-[4-(2-ethoxypyridin-3-yl)phenyl]piperidine-4-carboxamide]
19 | > 8.00 | CN1C[C@@H](F)C[C@H]1CNC(=O)C1(c2ccc(-c3cccn3C)nc2)CCN(c2ccc(C(F)(F)F)cc2C#N)CC1 [Compound 1-277, 1-[2-cyano-4-(trifluoromethyl)phenyl]-N-{[(2S,4S)-4-fluoro-1-methylpyrrolidin-2-yl]methyl}-4-[6-(1-methyl-1H-pyrrol-2-yl)pyridin-3-yl]piperidine-4-carboxamide]
20 | > 8.00 | CCOc1ncccc1-c1ccc(C2(C(=O)N[C@H]3CCN(C)C3)CCN(c3ccc(C(F)(F)F)cc3C#N)CC2)cn1 [Compound 1-11, 1-[2-cyano-4-(trifluoromethyl)phenyl]-4-{2′-ethoxy-[2,3′-bipyridin]-5-yl}-N-[(3S)-1-methylpyrrolidin-3-yl]piperidine-4-carboxamide]
21 | > 8.00 | COc1ccccc1-c1ccc(C2(C(=O)N[C@@H]3CNC[C@@H]3F)CCN(c3ccc(C(F)(F)F)cc3C#N)CC2)cn1 [Compound 1-237, 1-[2-cyano-4-(trifluoromethyl)phenyl]-N-[(3R,4S)-4-fluoropyrrolidin-3-yl]-4-[6-(2-methoxyphenyl)pyridin-3-yl]piperidine-4-carboxamide]
22 | > 8.00 | Cn1cccc1-c1ccc(C2(NC(=O)[C@H]3CCNC3)CCN(c3ccc(C(F)(F)F)cc3C#N)CC2)cn1 [Compound 2-44, (3S)—N-{1-[2-cyano-4-(trifluoromethyl)phenyl]-4-[6-(1-methyl-1H-pyrrol-2-yl)pyridin-3-yl]piperidin-4-yl}pyrrolidine-3-carboxamide]
23 | 7.00 to 8.00 | CCOc1ncccc1-c1ccc(C2(C(=O)NCCN(C)C)CCN(c3ccc(C(F)(F)F)cc3C#N)CC2)cn1 [Compound 1-15, 1-[2-cyano-4-(trifluoromethyl)phenyl]-N-[2-(dimethylamino)ethyl]-4-{2′-ethoxy-[2,3′-bipyridin]-5-yl}piperidine-4-carboxamide]
24 | > 8.00 | CCOc1ncccc1-c1ccc(C2(C(=O)N[C@@H](C)CN(C)C)CCN(c3ccc(C(F)(F)F)cc3F)CC2)cn1 [Compound 1-317, N-[(2S)-1-(dimethylamino)propan-2-yl]-4-{2′-ethoxy-[2,3′-bipyridin]-5-yl}-1-[2-fluoro-4-(trifluoromethyl)phenyl]piperidine-4-carboxamide]
25 | > 8.00 | CCOc1ncccc1-c1ccc(C2(C(=O)N[C@@H]3CCN(C)C3)CCN(c3ccc(C(F)(F)F)cc3C#N)CC2)cn1 [Compound 1-9, 1-[2-cyano-4-(trifluoromethyl)phenyl]-4-{2′-ethoxy-[2,3′-bipyridin]-5-yl}-N-[(3R)-1-methylpyrrolidin-3-yl]piperidine-4-carboxamide]

Row | Structure (SMILES) | pKi
26 | Cn1cccc1-c1ccc(C2(C(=O)N[C@@H]3CN4CCC3CC4)CCN(c3ccc(C(F)(F)F)cc3C#N)CC2)cn1 [Compound 1-187, N-[(3S)-1-azabicyclo[2.2.2]octan-3-yl]-1-[2-cyano-4-(trifluoromethyl)phenyl]-4-[6-(1-methyl-1H-pyrrol-2-yl)pyridin-3-yl]piperidine-4-carboxamide] | > 8.00
